This note sets out measurements from ChEMBL document CHEMBL6078729, “Synthetic glycol-split heparin tri- and tetrasaccharides provide new insights into structural peculiarities for antiheparanase activity” (Bioorg Med Chem, 2025).

This assay concerns the target T1, Heparanase (Homo sapiens, UniProt Q9Y251).
T1 sequence (Q9Y251 whole entry): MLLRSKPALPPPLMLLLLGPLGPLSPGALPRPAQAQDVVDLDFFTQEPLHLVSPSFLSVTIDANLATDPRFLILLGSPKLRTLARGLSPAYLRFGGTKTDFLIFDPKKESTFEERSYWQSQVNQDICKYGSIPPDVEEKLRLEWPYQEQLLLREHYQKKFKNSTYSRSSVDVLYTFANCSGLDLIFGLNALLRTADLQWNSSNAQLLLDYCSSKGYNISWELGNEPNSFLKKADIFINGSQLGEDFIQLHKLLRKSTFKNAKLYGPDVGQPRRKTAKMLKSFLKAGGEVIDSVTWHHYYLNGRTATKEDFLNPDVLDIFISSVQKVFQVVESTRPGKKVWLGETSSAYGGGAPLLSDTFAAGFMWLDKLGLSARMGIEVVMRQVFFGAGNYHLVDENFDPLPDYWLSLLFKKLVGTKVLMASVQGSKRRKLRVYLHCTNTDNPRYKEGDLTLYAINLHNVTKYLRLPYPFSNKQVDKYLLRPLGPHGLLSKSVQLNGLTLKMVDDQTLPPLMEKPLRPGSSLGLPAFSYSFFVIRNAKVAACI
The assay can be described thus: Inhibition of recombinant human heparanase assessed as fondaparinux cleavage by measuring disaccharide by colorimetric analysis.
The term IC50 denotes the midpoint of a concentration-inhibition curve. With `CO[C@H]1O[C@H](COS(=O)(=O)O)[C@@H](O[C@@H]2O[C@@H](C(=O)O)[C@@H](O[C@H]3O[C@H](COS(=O)(=O)O)[C@@H](O[C@@H]4O[C@@H](C(=O)O)[C@@H](OC)[C@H](O)[C@H]4O)[C@H](O)[C@H]3NS(=O)(=O)O)[C@H](O)[C@H]2O)[C@H](O)[C@H]1NS(=O)(=O)O`, the IC50 is more than 85.3 µM.
In the case of `CO[C@H]1O[C@H](COS(=O)(=O)O)[C@@H](O[C@@H](CO)O[C@@H](C(=O)O)[C@@H](CO)O[C@H]2O[C@H](COS(=O)(=O)O)[C@@H](OC)[C@H](O)[C@H]2NS(=O)(=O)O)[C@H](O)[C@H]1NS(=O)(=O)O` it was 37.9 µM; in that of `CO[C@H]1O[C@H](COS(=O)(=O)O)[C@@H](O[C@@H](CO)O[C@H](C(=O)O)[C@@H](CO)O[C@H]2O[C@H](COS(=O)(=O)O)[C@@H](OC)[C@H](O)[C@H]2NS(=O)(=O)O)[C@H](O)[C@H]1NS(=O)(=O)O`, 76.8 µM.
To `CO[C@H]1O[C@H](COS(=O)(=O)O)[C@@H](O[C@H](O[C@H](C(=O)O)[C@H](O[C@H]2O[C@H](COS(=O)(=O)O)[C@@H](OC)[C@H](O)[C@H]2NS(=O)(=O)O)C(=O)O)C(=O)O)[C@H](O)[C@H]1NS(=O)(=O)O` belongs 71.5 µM.
To `CO[C@H]1O[C@H](COS(=O)(=O)O)[C@@H](O[C@H](O[C@@H](C(=O)O)[C@@H](O[C@H]2O[C@H](COS(=O)(=O)O)[C@@H](O[C@H](O[C@@H](C(=O)O)[C@@H](OC)C(=O)O)C(=O)O)[C@H](O)[C@H]2NS(=O)(=O)O)C(=O)O)C(=O)O)[C@H](O)[C@H]1NS(=O)(=O)O` belongs 7.57 µM.
In the case of `CO[C@H]1O[C@H](COS(=O)(=O)O)[C@@H](O[C@@H]2O[C@H](C(=O)O)[C@@H](O[C@H]3O[C@H](COS(=O)(=O)O)[C@@H](OC)[C@H](O)[C@H]3NS(=O)(=O)O)[C@H](O)[C@H]2O)[C@H](O)[C@H]1NS(=O)(=O)O`, the IC50 was more than 103 µM.
For the molecule `CO[C@H]1O[C@H](COS(=O)(=O)O)[C@@H](O[C@@H]2O[C@@H](C(=O)O)[C@@H](O[C@H]3O[C@H](COS(=O)(=O)O)[C@@H](OC)[C@H](O)[C@H]3NS(=O)(=O)O)[C@H](O)[C@H]2O)[C@H](O)[C@H]1NS(=O)(=O)O`, the IC50 was more than 103 µM.
On to `CO[C@H]1O[C@H](COS(=O)(=O)O)[C@@H](O[C@H](O[C@@H](C(=O)O)[C@H](O[C@H]2O[C@H](COS(=O)(=O)O)[C@@H](OC)[C@H](O)[C@H]2NS(=O)(=O)O)C(=O)O)C(=O)O)[C@H](O)[C@H]1NS(=O)(=O)O`, for which the IC50 was more than 95.4 µM.
To `CO[C@H]1O[C@H](COS(=O)(=O)O)[C@@H](O[C@@H](CO)O[C@@H](C(=O)O)[C@H](CO)O[C@H]2O[C@H](COS(=O)(=O)O)[C@@H](O[C@@H](CO)O[C@@H](C(=O)O)[C@H](CO)OC)[C@H](O)[C@H]2NS(=O)(=O)O)[C@H](O)[C@H]1NS(=O)(=O)O` belongs 63.7 µM.
